Laboratory results from patent US20140178902A1, “METHOD FOR DETECTING INFECTIONS” (priority 2011, published 2014).

Assays:
[1] = test system: antibody (anti-PSC1A, rabbit antisera); assay: Competitive ELISA: free FusC against antibody recognition of conjugate PSC2A; format: binding; settings: Free FusC 6.5 μg/ml
Method: FIG. 5: Competitive ELISA detection of TAFC and FusC. A. Immobilised antigen was an equimolar combination of PSC2B and PSC3B (acetylated & non-acetylated cBSA-SMCC-FusC^Fe3+), coated at 2.5 μg/ml (250 ng/well). Murine antisera was used (1/1000) which was raised against KLH-sHSAB-ih/cTAFC(PSC1A & PSC1B); Competition antigens were either FusC or cTAFC (0-20 μg/ml, respectively). B. FusC detection by ELISA. Free FusC 6.5 μg/ml prevents antibody (anti-PSC1A, rabbit antisera) recognition of conjugate PSC2A (cBSA-SATA-SMCC-FusC).
Microtitre plates (Nunc Maxisorp™ available from Nunc A/S, Roskilde, Denmark) were coated with either FusC (range used for optimisation: 0-66 μg/ml) or an equimolar combination of PSC2B/PSC3B conjugates (range used for optimisation: 0-10 μg/ml) in 50 mM sodium carbonate pH 9.4 for 16 hr (100 μl/well). […] Finally the absorbance was measured at 450/620 nm using a Synergy plate reader and standard curves of A450/620 nm versus log FusC concentration (0-100 μg/ml (or 0-20 μg/ml TAFC) constructed, from which the concentration of FusC in normal clinical specimens, of animal and human origin, was computed.
For example, it was observed that FusC or TAFC, respectively, could be detected by ELISA using murine antisera [anti-KLH-sHSAB-ihTAFC or cTAFC] […]

[2] = test system: rabbit Anti-FusC; assay: Protein immunoblot of gold nanoparticle conjugates; format: binding; settings: serial dilutions
Method: Confirmation of conjugate formation was performed using a protein immunoblot. 4 μl of AuNP-FsC-BSA, Au-BSA and FusC-BSA samples were spotted onto a nitrocellulose membrane strip in serial dilutions (A-E) prepared in 2 mM borate (pH 9.0). Spots were allowed to dry before the strip was blocked for 30 min in Marvel (5% (w/v) in PBS). Membranes were then incubated for 30 min with primary antibody (rabbit Anti-FusC), diluted using blocking buffer (1/1000). Nitrocellulose blots were subsequently washed (2×5 min) in blocking solution and then incubated with a 1/1000 dilution of anti-rabbit IgG peroxidase-conjugated secondary antibody (Sigma-Aldrich), shaking for 30 min at room temperature. The nitrocellulose membranes were then washed extensively (2×5 min) in blocking solution and rinsed (2×5 min) with PBS. Immunoreactive samples were visualized using Pierce ECL Chemiluminescent Substrate (Fischer Scientific) for the detection of horseradish peroxidase.

Row | Compound | antibody recognition of conjugate PSC2A (cBSA-SATA-SMCC-FusC) [1] | reactivity in immunoblot with rabbit Anti-FusC [2]
1 | C/C1=C/C(=O)N(O)CCCC(N)C(=O)OCC/C(C)=C\C(=O)N(O)CCCC(N)C(=O)OCC/C(C)=C\C(=O)N(O)CCCC(N)C(=O)OCC1 (centres unmarked) [FusC, fusarinine C] | prevents | –
2 | BSA-AuNP: negative control BSA gold nanoparticle conjugate | – | No reactivity is visible
